Reference: article PMC8296708, “The pan HDAC inhibitor Givinostat improves muscle function and histological parameters in two Duchenne muscular dystrophy murine models expressing different haplotypes of the LTBP4 gene” (Skeletal Muscle, 2021)

Test system: mdx mice
Test: Muscle fibrosis by Sirius Red staining in mdx mice
Assay type: in vivo, mouse (C57BL/10ScSn-Dmd^mdx/J)
Text: Tibialis anterior (TA), gastrocnemius (GAS), DIA, and heart were collected from mice maintained under isoflurane anesthesia and sacrificed by cervical dislocation. These muscles were collected from C57BL/10J wt and mdx (5 mice/group) at the end of treatments and from DBA/2J wt and D2.B10 mice (5 mice/group) at two different time points to be examined by a pathologist (for more details see Additional Table 1). Due to the results obtained by the functional tests, muscles from only some treatment groups were analyzed in both DMD models (see Additional Table 1). All the collected muscles were fixed in 10% buffered formalin solution (Bio-optica, Milan, Italy) at + 4 °C for at least 48 h. After fixation, muscular samples were transversely trimmed, caged, and paraffin embedded overnight with an Automated Vacuum Tissue Processor Floor (ETP, Histo-Line Laboratories) and included in paraffin blocks. Serial transverse cross-sections (4 μm thick) were cut with a microtome (Leica RM 2255), collected onto uncoated glass slides, and stained using a standard protocol for hematoxylin and eosin (Mayer hematoxylin & Aqueous G Eosin 1%, Bio-Optica) and Sirius Red staining (Direct Red 80, Sigma-Aldrich). For the image analysis and quantitation, hematoxylin and eosin- and Sirius Red-stained slides were examined with an Olympus BX51 light microscope. From each sample, 1 to 3 random microphotographs at the magnification of × 4 and × 10 (TA, GAS and heart) or × 20 (DIA) were collected using Image-Pro Plus system. The digital images were processed by a pathologist using ImageJ software (U.S. National Institutes of Health, Bethesda, MD, USA). To quantify CSA and centralized nuclei (%) on hematoxylin and eosin-stained sections, one hundred myofibers were manually measured for each muscle/mouse using a tablet pen (Wacom Intruos) and analyzed by the ImageJ software after a linear calibration of 150 μm. The fibrotic area, corresponding to the area stained in red, was compared to the total area of the tissue section, and the results were expressed as percentage fibrosis. The % of fibrosis of muscles in the different treatment groups was expressed by averaging the three values obtained from each muscle.

**Q.** What does the source list for `CCN(CC)Cc1ccc2cc(COC(=O)Nc3ccc(C(=O)NO)cc3)ccc2c1` [Givinostat]?
**A.** Reduction of fibrosis in GAS (10 and 37.5 mg/kg, T16, vs vehicle): about 30%; Effect on fibrosis in TA (T16, doses 1, 10, 37.5 mg/kg analyzed): observed only at the dose of 37.5 mg/kg; Reduction of fibrosis in DIA (all 3 analyzed doses (1, 10, 37.5 mg/kg), T16): about 40%; Effect on fibrosis in heart (all 3 doses analyzed, T16, vs vehicle): the effect was not significant
